Assay results taken from ChEMBL document CHEMBL6120991, “Chromones Featuring a [6,6]-Spiroketal Moiety Produced by Coculture of the Endophytic Fungi Chaetomium virescens and Xylaria Grammica” (J Nat Prod, 2025).
The source made the active and inactive calls. The calls are words filed in the database; no cut-off is given here.

Assays:
SW620/AD300 [1] = test: Cytotoxicity against multidrug resistant human SW620/AD300 cells assessed as inhibition of cell viability at 20 uM measured after 72 hrs in presence of paclitaxel by CCK-8 method relative to control; format: functional
SW620/AD300 [2] = test: Cytotoxicity against multidrug resistant human SW620/AD300 cells assessed as inhibition of cell viability at 1 uM measured after 72 hrs by CCK-8 method relative to control; format: functional
SW620/AD300 [3] = test: Inhibition of colony formation in human SW620/AD300 cells assessed as decrease in colony number at 1 uM incubated for 7 days by crystal violet staining based analysis; format: functional, cell-based; settings: time 7.0 day
[4] = molecular target: ATP-dependent translocase ABCB1 (Homo sapiens, UniProt P08183); test: Induction of thermal stabilization of P-gp in multidrug resistant human SW620/AD300 cells at 20 uM incubated for 30 mins by CESTA analysis; format: cell-based; settings: sw620/ad300, 0.5 h
SW620/AD300 [5] = test: Reversal of multi-drug resistance in human SW620/AD300 cells assessed as decrease in colony number at 20 uM presence of 1 uM of paclitaxel incubated for 7 days by crystal violet staining based analysis; format: functional, cell-based; settings: time 7.0 day
SW620/AD300 [6] = test: Reversal of multi-drug resistance in human SW620/AD300 cells assessed as decrease in colony number at 20 uM presence of 0.25 uM of paclitaxel incubated for 7 days by crystal violet staining based analysis; format: functional, cell-based; settings: time 7.0 day
SW620/AD300 [7] = test: Reversal of multi-drug resistance in human SW620/AD300 cells assessed as decrease in frequency of cells in G0/G1 phase at 20 uM presence of 1 uM of paclitaxel incubated for 24 hrs by PI staining based flow cytometry analysis; format: functional, cell-based
SW620/AD300 [8] = test: Inhibition of colony formation in human SW620/AD300 cells assessed as decrease in colony number at 20 uM incubated for 7 days by crystal violet staining based analysis; format: functional, cell-based; settings: time 7.0 day
SW620/AD300 [9] = test: Reversal of multi-drug resistance in human SW620/AD300 cells assessed as increase in frequency of cells in G2/M phase at 20 uM presence of 1 uM of paclitaxel incubated for 24 hrs by PI staining based flow cytometry analysis; format: functional, cell-based

ATP-dependent translocase ABCB1, sequence (P08183 whole entry): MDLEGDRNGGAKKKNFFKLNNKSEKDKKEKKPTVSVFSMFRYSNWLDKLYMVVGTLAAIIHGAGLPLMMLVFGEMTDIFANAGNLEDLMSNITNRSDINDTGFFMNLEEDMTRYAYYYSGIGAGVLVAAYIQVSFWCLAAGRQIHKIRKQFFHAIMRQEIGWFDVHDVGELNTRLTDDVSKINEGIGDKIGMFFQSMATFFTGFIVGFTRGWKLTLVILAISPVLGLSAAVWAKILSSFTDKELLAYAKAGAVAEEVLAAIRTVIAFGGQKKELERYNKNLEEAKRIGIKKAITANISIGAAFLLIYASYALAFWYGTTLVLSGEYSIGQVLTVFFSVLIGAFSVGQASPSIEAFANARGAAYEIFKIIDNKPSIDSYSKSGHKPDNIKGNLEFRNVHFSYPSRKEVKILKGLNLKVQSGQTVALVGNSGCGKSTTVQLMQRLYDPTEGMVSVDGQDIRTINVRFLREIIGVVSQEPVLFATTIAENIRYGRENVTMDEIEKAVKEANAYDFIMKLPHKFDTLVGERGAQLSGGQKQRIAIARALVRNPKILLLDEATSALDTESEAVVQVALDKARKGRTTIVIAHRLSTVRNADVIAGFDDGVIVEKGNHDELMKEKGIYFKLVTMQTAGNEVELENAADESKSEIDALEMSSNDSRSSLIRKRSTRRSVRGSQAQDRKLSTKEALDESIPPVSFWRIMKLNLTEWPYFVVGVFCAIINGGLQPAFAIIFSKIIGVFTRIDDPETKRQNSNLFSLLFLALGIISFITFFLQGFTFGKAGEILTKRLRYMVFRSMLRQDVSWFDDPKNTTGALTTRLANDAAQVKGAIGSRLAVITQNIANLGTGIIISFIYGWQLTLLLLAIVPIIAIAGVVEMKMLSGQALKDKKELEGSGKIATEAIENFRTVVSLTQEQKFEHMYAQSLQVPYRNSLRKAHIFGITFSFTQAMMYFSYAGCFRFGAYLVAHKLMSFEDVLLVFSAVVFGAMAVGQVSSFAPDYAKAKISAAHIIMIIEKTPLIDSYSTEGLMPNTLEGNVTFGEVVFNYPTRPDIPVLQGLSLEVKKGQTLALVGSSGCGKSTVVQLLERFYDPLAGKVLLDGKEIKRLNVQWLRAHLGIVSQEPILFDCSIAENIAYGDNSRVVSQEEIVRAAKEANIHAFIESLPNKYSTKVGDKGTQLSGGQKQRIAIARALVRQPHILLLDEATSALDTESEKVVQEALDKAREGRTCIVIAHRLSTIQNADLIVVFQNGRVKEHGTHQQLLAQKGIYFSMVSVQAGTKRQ

SMILES	inhibition at 20 µM (SW620/AD300 [1]) [%]	also measured
COc1cc2oc(C)cc(=O)c2c2c1CC(C)C1(O2)OC(C)CC(O)C1O (stereo not given)	11.1	–
COc1cc2oc(C)cc(=O)c2c2c1CC[C@@]1(O2)O[C@@H](C)C[C@H](O)[C@@H]1O	3.1	–
COc1cc2oc(C)cc(=O)c2c2c1C[C@@H](C)[C@@]1(C[C@@H](O)C[C@H](C)O1)O2	10	–
COc1cc2oc(C)cc(=O)c2c2c1C[C@@H](C)[C@@]1(O2)O[C@@H](C)C[C@H](O)[C@@H]1O	19.6	–
COc1cc2oc(C)cc(=O)c2c2c1C[C@H](C)[C@@]1(C[C@H](OC)C[C@H](C)O1)O2	29.2	–
COc1cc2oc(CO)cc(=O)c2c2c1C[C@@H](C)[C@@]1(C[C@@H](NCC/C(C)=C/C(=O)O)C[C@H](C)O1)O2	46.4	–
COc1cc2oc(C)cc(=O)c2c2c1C[C@H](C)[C@@]1(O2)O[C@@H](C)C[C@H](O)[C@@H]1O	22	–
COc1cc2oc(CO)cc(=O)c2c2c1C[C@H](C)[C@@]1(O2)O[C@@H](C)C[C@H](O)[C@@H]1O	15.3	–
COc1cc2oc(C)cc(=O)c2c2c1C[C@@H](C)[C@@]1(C[C@H](O)C[C@H](C)O1)O2	0.2	–
COc1cc2oc(C)cc(=O)c2c2c1C[C@H](C)[C@@]1(O2)O[C@@H](C)CCC1=O	24.5	–
CC(=O)O[C@H]1C(=O)[C@@]2(C)[C@H]([C@H](OC(=O)c3ccccc3)[C@]3(O)C[C@H](OC(=O)[C@H](O)[C@@H](NC(=O)c4ccccc4)c4ccccc4)C(C)=C1C3(C)C)[C@]1(OC(C)=O)CO[C@@H]1C[C@@H]2O [PACLITAXEL]	–	inhibition at 1 µM (SW620/AD300 [2]): 1.1%; inhibition (SW620/AD300 [3]): inactive
COc1cc2oc(CO)cc(=O)c2c2c1C[C@@H](C)[C@@]1(O2)O[C@@H](C)C[C@H](O)[C@@H]1O	11.2	–
COc1cc2oc(C)cc(=O)c2c2c1C[C@@H](C)[C@@]1(C[C@H](OC)C[C@H](C)O1)O2	77.8	Activity [4]: Active; Activity (SW620/AD300 [5]): Active; Activity (SW620/AD300 [6]): Active; Activity (SW620/AD300 [7]): Active; inhibition (SW620/AD300 [8]): inactive; Activity (SW620/AD300 [9]): Active
